# Test results published in patent US20070116800A1, “Chewing Gum with High-Potency Sweetener” (The Coca-Cola Company, priority 2005, published 2007).
# How the values were obtained:
# [1] = Rate of dissolution in H2O at 25° C. of rebaudioside A polymorph and amorphous forms; format: physicochemical
# [2] = format: physicochemical
# Experimental: A solution of rebaudioside A (>97% pure by HPLC ) was prepared in double distilled water (12.5 gm in 50 mL, 25% concentration) by stirring the mixture at 40° C. for 5 minutes. An amorphous form of_rebaudioside A was formed by immediately using the clear solution for spray drying with the Lab-Plant spray drier SD-04 instrument (Lab-Plant Ltd., West Yorkshire, U.K.). The solution was fed through the feed pump into the nozzle atomizer which atomized it into a spray of droplets with the help of a constant flow of nitrogen/air. […] This dry powder (11-12 g, H2O 6.74%) was discharged continuously from the drying chamber and was collected in a bottle.
Rate of dissolution in H2O at 25° C. (grade in words) [1],Rate of dissolution in H2O at 25° C. ([1]; 5 minutes),Rate of dissolution in H2O at 25° C. ([1]; 60 minutes),solubility in water [2] [%],Substance
High,(>30%/5 %/5 minutes,,,rebaudioside A [Form 3]
Very low,,(<0.2%/60 %/60 minutes,,rebaudioside A [Form 1]
High,(>35.0%/5 %/5 minutes,,> 35.0,rebaudioside A [Form 4]
Intermediate,(<30%/5 %/5 minutes,,,rebaudioside A [Form 2]
